Test results: patent publication US20120065126A1, “Pharmaceutical Compositions Containing Antifungal Peptides” (BASF SE, priority 2009, published 2012)

System: Malassezia furfur (DSM 6170)
Format: cell-based
Conditions: DSM 6170, 72 h
Description: Minimum inhibitory concentration of peptide P18 (P18 sequence H-KWKLFKKIPKFLHLAKKF-NH2 (Bachem AG, Switzerland)) based on Malassezia furfur (DSM 6170)
Growth medium M472 Pityrosporum medium according to DSMZ:
40 g of malt extract (Becton, Dickinson and Company, Sparks, USA) 20 g of ox bile (Merck, Darmstadt, Germany)
A shake culture containing M472 Pityrosporum medium was inoculated with M. furfur and incubated with shaking at 30° C. and 200 rpm overnight.
The suspension was adjusted to an optical density measured at 600 nm of 0.1. A 96-well microtiter plate was filled with 95 μl per well of the M. furfur suspension. Then a dilution series of the peptide with a final concentration in the wells between 0 and 1000 ppm was added. To this end, 5 μl per well of peptide solution with a concentration in the range from 0 ppm to 20 000 ppm were added to the M. furfur suspension, such that final concentrations of the peptide in the wells in the range between 0 ppm and 1000 ppm were obtained.
The microtiter plate was incubated at 30° C., 600 rpm. The fungal growth was assessed by measuring the optical density at 620 nm and observed over 72 hours. The experiments were conducted at least in double determination and independently repeated at least once.

H-KWKLFKKIPKFLHLAKKF-NH2 [P18, H-KWKLFKKIPKFLHLAKKF-NH2]
Minimum inhibitory concentration: 125 ppm
